# Read-outs that look alike come from different tables or passages of the source.
# What was measured:
# [1] = system: Cl. perfringens; test: microbe, parasite or virus in culture; type: cell-based; details: Clostridium perfringens
# [2] = system: Cl. septicum; test: M.I.C. against anaerobic bacteria, Cl. septicum; type: cell-based; details: Clostridium septicum; strain A21869
# [3] = system: Cl. ramosum; test: M.I.C. against anaerobic bacteria, Cl. ramosum; type: cell-based; details: Thomasclavelia ramosa
# [4] = system: Cl. cylindrosporum; test: M.I.C. against anaerobic bacteria, Cl. cylindrosporum; type: cell-based; details: strain A9562
# [5] = system: Cl. difficile; test: M.I.C. against anaerobic bacteria, Cl. difficile; type: cell-based; details: Clostridioides difficile
# [6] = system: Bacteroides fragilis; test: M.I.C. against anaerobic bacteria, Bacteroides fragilis; type: cell-based
# [7] = system: Cl. acidiurici; test: M.I.C. against anaerobic bacteria, Cl. acidiurici; type: cell-based; details: strain A9560
# [8] = system: Pseudomonas aeruginosa; test: animal or person; details: in Mus musculus, im
smiles,measurement,setting,value
"CC1(C)S[C@@H]2[C@H](NC(=O)[C@H](NC(=O)c3n[nH]c(=S)[nH]c3=O)c3ccc(O)cc3)C(=O)N2[C@H]1C(=O)O [BL-P1937, sodium D(-)-6-(α-(1,2,4-triazine-3-thione-5-one-6-carboxamido)-4-hydroxyphenylacetamido)-penicillanate]",MIC,[1]; strain A21873,0.063 µg/mL
same,MIC,[1]; strain A21874,0.13 µg/mL
same,MIC,[1]; strain A21907,0.25 µg/mL
same,MIC,[2],1 µg/mL
same,MIC,[3]; strain A21883,0.25 µg/mL
same,MIC,[3]; strain A21970,2 µg/mL
same,MIC,[4],0.25 µg/mL
same,MIC,[5]; strain A21675,4 µg/mL
same,MIC,[5]; strain A21972,4 µg/mL
same,MIC,[6]; strain A20920,0.5 µg/mL
same,MIC,[6]; strain A20926,2 µg/mL
same,MIC,[6]; strain A20927-1,1 µg/mL
same,MIC,[6]; strain A20930,16 µg/mL
same,MIC,[6]; strain A20933,4 µg/mL
same,MIC,[6]; strain A20934,4 µg/mL
same,MIC,[6]; strain A20935,2 µg/mL
same,MIC,[6]; strain A21870,1 µg/mL
same,MIC,[6]; strain A21871,2 µg/mL
same,MIC,[6]; strain A21872,16 µg/mL
same,MIC,[6]; strain A21875,8 µg/mL
same,MIC,[6]; strain A22053,2 µg/mL
same,MIC,[6]; strain A27020,8 µg/mL
same,MIC,[7],1 µg/mL
same,ED50,"[8]; read-out: PD50 /treatment, P. aeruginosa A9843A, challenge 1 × 10^4, i.m., at 0 and 2 hours",11 mg/kg
same,ED50,"[8]; read-out: PD50 /treatment, P. aeruginosa A9843A, challenge 2 × 10^4, i.m., at 0 and 2 hours",5.4 mg/kg
same,ED50,"[8]; read-out: PD50 /treatment, P. aeruginosa A9843A, challenge 3 × 10^4, i.m., at 0 and 2 hours",11 mg/kg
same,ED50,"[8]; read-out: PD50 /treatment, P. aeruginosa A20599, challenge 3 × 10^4, i.m., at 0 and 2 hours",~13 mg/kg
same,ED50,"[8]; read-out: PD50 /treatment, P. aeruginosa A20599, challenge 6 × 10^4, i.m., at 0 and 2 hours",22 mg/kg

# — patent US4081441A, “Antibacterial agents” (priority 1977, dated 1978)
